The values that follow come from ChEMBL document CHEMBL1201861, “Genomics of Drug Sensitity in Cancer screening data, Wellcome Trust Sanger Institute”.

Assay in all cases: cells
Holding throughout (type): functional, cell-based, Homo sapiens

The subject of experiment [1] is BHT-101. As to conditions: Homo sapiens, BHT-101.
Description: SANGER: Inhibition of human BHT-101 cell growth in a cell viability assay.
Experiment [2] concerns LXF-289 cell line. Particulars: Homo sapiens, LXF-289.
Description: SANGER: Inhibition of human LXF-289 cell growth in a cell viability assay.
In experiment [3] the test system is D-336MG. Particulars: Homo sapiens, D-336MG.
Description: SANGER: Inhibition of human D-336MG cell growth in a cell viability assay.
The test system of experiment [4] is GR-ST. Particulars: Homo sapiens, GR-ST.
Description: SANGER: Inhibition of human GR-ST cell growth in a cell viability assay.
Experiment [5] deals with VMRC-RCZ. As to conditions: Homo sapiens, VMRC-RCZ.
Description: SANGER: Inhibition of human VMRC-RCZ cell growth in a cell viability assay.
The subject of experiment [6] is HCC1937. As to conditions: Homo sapiens, HCC1937.
Description: SANGER: Inhibition of human HCC1937 cell growth in a cell viability assay.
In experiment [7] the test system is A388. As to conditions: Homo sapiens, A388.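 Also: growth inhibition of human A388 cells, read out with a cell viability assay.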
Description: SANGER: Inhibition of human A388 cell growth in a cell viability assay.
The test system of experiment [8] is SW900. As to conditions: Homo sapiens, SW900.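 Also: IC50 is the concentration that inhibits SW900 cell growth, measured by a cell viability assay.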
Description: SANGER: Inhibition of human SW900 cell growth in a cell viability assay.
Experiment [9] concerns SNU-C2B. As to conditions: Homo sapiens, SNU-C2B.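 Also: cell viability readout used to measure compound-driven suppression of SNU-C2B cell proliferation, IC50 marking half-maximal growth inhibition.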
Description: SANGER: Inhibition of human SNU-C2B cell growth in a cell viability assay.
The test system of experiment [10] is CAL-12T. As to conditions: Homo sapiens, CAL-12T.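 Also: growth inhibition of human CAL-12T cells, read out with a cell viability assay.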
Description: SANGER: Inhibition of human CAL-12T cell growth in a cell viability assay.
The subject of experiment [11] is LU-139. As to conditions: Homo sapiens, LU-139.
Description: SANGER: Inhibition of human LU-139 cell growth in a cell viability assay.
The subject of experiment [12] is KLE. Particulars: Homo sapiens, KLE.
Description: SANGER: Inhibition of human KLE cell growth in a cell viability assay.
Experiment [13] has as its system C8166. As to conditions: Homo sapiens, C8166.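 Also: growth inhibition of human C8166 cells measured by a cell viability assay.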
Description: SANGER: Inhibition of human C8166 cell growth in a cell viability assay.
The subject of experiment [14] is K562. As to conditions: Homo sapiens, K562.
Description: SANGER: Inhibition of human K-562 cell growth in a cell viability assay.
Experiment [15] deals with KYSE-510. As to conditions: Homo sapiens, KYSE-510.
Description: SANGER: Inhibition of human KYSE-510 cell growth in a cell viability assay.

Some results are limits rather than exact numbers.

`CCc1cncnc1N1CCN(Cc2nc3cc(C(F)(F)F)ccc3[nH]2)CC1` registered an IC50 in [1] of 820 nM.
Take `COc1cc2ncnc(Nc3ccc(F)c(Cl)c3)c2cc1OCCCN1CCOCC1` [GEFITINIB]: the IC50 in [2], in [3], in [4], in [5], in [6] and in experiment [7] was greater than 500 nM in each case. Also, the IC50 in experiment [8], in experiment [9], in experiment [10], in experiment [11], in [12] and in experiment [13] was greater than 500 nM throughout. For the same compound, the IC50 in experiment [14] and in experiment [15] was greater than 500 nM throughout.

The term IC50 denotes the midpoint of a concentration-inhibition curve.
